Test results from patent publication US10519114B2, “Peptidomimetics and methods of using the same” (The Regents of the University of Michigan, priority 2016, dated 2019).

Key:
[1] = target: T1, human κ (CHO-KOR) opioid receptor (Homo sapiens, UniProt P41145); test: Radioligand binding assay, [3H]diprenorphine displacement, KOR; settings: displacement of 0.2 nM [3H]diprenorphine, CHO-KOR membranes; mean ± standard error
T1 construct: expressed in transfected cells
Protocol: (§1) In Vitro Pharmacology-Cell Lines and Membrane Preparations. All tissue culture reagents were purchased from Gibco Life Sciences (Grand Island, N.Y., U.S.). C6-rat glioma cells stably transfected with a rat μ (C6-MOR) or rat δ (C6-DOR) opioid receptor20 and Chinese hamster ovary (CHO) cells stably expressing a human K (CHO-KOR) opioid receptor21 were used for all in vitro assays. Cells were grown to confluence at 37° C. in 5% CO2 in Dulbecco's modified Eagle medium containing 10% fetal bovine serum and 5% penicillin/streptomycin. Membranes were prepared by washing confluent cells three times with ice cold phosphate buffered saline (0.9% NaCl, 0.61 mM Na2HPO4, 0.38 mM KH2PO4, pH 7.4). Cells were detached from the plates by incubation in warm harvesting buffer (20 mM HEPES, 150 mM NaCl, 0.68 mM EDTA, pH 7.4) and pelleted by centrifugation at 200 g for 3 min. The cell pellet was suspended in ice-cold 50 mM Tris-HCl buffer, pH 7.4, and homogenized with a Tissue Tearor (Biospec Products, Inc., Bartlesville, Okla., U.S.) for 20 s at setting 4. The homogenate was centrifuged at 20 000 g for 20 min at 4° C., and the pellet was rehomogenized in 50 mM Tris-HCl with a Tissue Tearor for 10 s at setting 2, followed by recentrifugation. The final pellet was resuspended in 50 mM Tris-HCl and frozen in aliquots at […]. Protein concentration was determined via Bradford assay using bovine serum albumin as the standard.
(§2) Radioligand Binding Assays. Radioactive compounds were purchased from Perkin-Elmer (Waltham, Mass., U.S.). Opioid ligand binding assays were performed using competitive displacement of 0.2 nM [3H]diprenorphine (250 μCi, 1.85 TBq/mmol) by the test compound from membrane preparations containing opioid receptors. The assay mixture, containing membrane suspension (20 μg protein/tube) in 50 mM Tris-HCl buffer (pH 7.4), [3H]diprenorphine, and various concentrations of test peptide, was incubated at room temperature for 1 h to allow binding to reach equilibrium. The samples were rapidly filtered through Whatman GF/C filters using a Brandel harvester (Brandel, Gaithersburg, Md., U.S.) and washed three times with 50 mM Tris-HCl buffer. The radioactivity retained on dried filters was determined by liquid scintillation counting after saturation with EcoLume liquid scintillation cocktail in a Wallac 1450 MicroBeta (Perkin-Elmer, Waltham, Mass., U.S.). Nonspecific binding was determined using 10 μM naloxone. Inhibitory constant (Ki) values were calculated using nonlinear regression analysis to fit a logistic equation to the competition data using GraphPad Prism, version 5.01, for Windows (GraphPad Software Inc., La Jolla, Calif.). The results presented are the mean±standard error from at least three separate assays performed in duplicate.

[2] = target: T2, rat δ (C6-DOR) opioid receptor (Rattus norvegicus, UniProt P33533); test: Radioligand binding assay, [3H]diprenorphine displacement, DOR; settings: displacement of 0.2 nM [3H]diprenorphine, C6-DOR membranes; mean ± standard error
T2 construct: expressed in transfected cells
T2 sequence (P33533 whole entry): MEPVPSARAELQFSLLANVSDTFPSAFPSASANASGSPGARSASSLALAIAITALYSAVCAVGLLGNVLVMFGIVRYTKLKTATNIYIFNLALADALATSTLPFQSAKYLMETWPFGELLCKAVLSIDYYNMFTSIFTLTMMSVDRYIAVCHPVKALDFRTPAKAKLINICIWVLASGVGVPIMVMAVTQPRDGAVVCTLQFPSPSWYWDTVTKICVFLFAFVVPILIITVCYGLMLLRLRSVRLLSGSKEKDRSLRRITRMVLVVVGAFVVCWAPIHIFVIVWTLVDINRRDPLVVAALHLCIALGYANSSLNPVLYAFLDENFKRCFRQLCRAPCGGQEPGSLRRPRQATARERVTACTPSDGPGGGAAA
Protocol: as §1, §2

[3] = target: T3, rat μ (C6-MOR) opioid receptor (Rattus norvegicus, UniProt P33535); test: Radioligand binding assay, [3H]diprenorphine displacement, MOR; settings: displacement of 0.2 nM [3H]diprenorphine, C6-MOR membranes; mean ± standard error
T3 construct: expressed in transfected cells
T3 sequence (P33535 whole entry): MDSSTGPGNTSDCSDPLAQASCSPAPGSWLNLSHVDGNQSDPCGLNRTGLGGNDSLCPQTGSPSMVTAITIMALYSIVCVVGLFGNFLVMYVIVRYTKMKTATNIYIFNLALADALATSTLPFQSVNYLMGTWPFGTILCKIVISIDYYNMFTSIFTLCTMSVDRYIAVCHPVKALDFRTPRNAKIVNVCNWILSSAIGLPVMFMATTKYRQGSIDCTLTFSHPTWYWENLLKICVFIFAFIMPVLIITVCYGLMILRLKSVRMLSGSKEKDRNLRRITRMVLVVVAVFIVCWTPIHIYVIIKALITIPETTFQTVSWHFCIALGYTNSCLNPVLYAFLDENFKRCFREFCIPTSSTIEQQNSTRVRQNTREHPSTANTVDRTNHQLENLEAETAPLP
Protocol: as §1, §2

[4] = target: T2, rat δ (C6-DOR) opioid receptor; test: Stimulation of [35S]GTPγS binding, DOR; type: biochemical; settings: for Emax / % stimulation DOR: [35S]GTPγS maximal stimulation compared with 10 μM standard DPDPE; for EC50 / EC50 (nm) DOR: [35S]GTPγS binding, C6-DOR membranes, mean ± standard error
Protocol: as §1
(§3) Stimulation of [^35S]GTPyS Binding. Agonist stimulation of [35S]guanosine 5′-O-[γ-thio]triphosphate ([^35S]GTPγS, 1250 Ci, 46.2 TBq/mmol) binding was measured as described previously Briefly, membranes (10-20 μg of protein/tube) were incubated 1 h at room temperature in GTPyS buffer (50 mM Tris-HCl, 100 mM NaCl, 5 mM MgCl2, pH 7.4) containing 0.1 nM [^35S]GTPγS, 30 μM guanosine diphosphate (GDP), and varying concentrations of test peptides. Peptide stimulation of [^35S]GTPyS was compared with 10 μM standard compounds [D-Ala^2,N-MePhe^4,Gly-ol]encephalin (DAMGO) at MOR, D-Pen^2,5-enkephalin (DPDPE) at DOR, or […] at KOR. The reaction was terminated by rapidly filtering through GF/C filters and washing 10 times with GTPyS buffer, and retained radioactivity was measured as described above. The results presented are the mean±standard error from at least three separate assays performed in duplicate; maximal stimulation was determined using nonlinear regression analysis with GraphPad Prism (GraphPad Software Inc., La Jolla, Calif.).

[5] = target: T1, human κ (CHO-KOR) opioid receptor; test: Stimulation of [35S]GTPγS binding, KOR; type: biochemical; settings: for EC50 / EC50 (nm) KOR: [35S]GTPγS binding, CHO-KOR membranes, mean ± standard error; for Emax / % stimulation KOR: [35S]GTPγS maximal stimulation compared with 10 μM standard U-69,593
Protocol: as §1, §3

[6] = target: T3, rat μ (C6-MOR) opioid receptor; test: Stimulation of [35S]GTPγS binding, MOR; type: biochemical; settings: for EC50: [35S]GTPγS binding, C6-MOR membranes, mean ± standard error; for Emax: [35S]GTPγS maximal stimulation compared with 10 μM standard DAMGO
Protocol: as §1, §3

T1 sequence (P41145 whole entry): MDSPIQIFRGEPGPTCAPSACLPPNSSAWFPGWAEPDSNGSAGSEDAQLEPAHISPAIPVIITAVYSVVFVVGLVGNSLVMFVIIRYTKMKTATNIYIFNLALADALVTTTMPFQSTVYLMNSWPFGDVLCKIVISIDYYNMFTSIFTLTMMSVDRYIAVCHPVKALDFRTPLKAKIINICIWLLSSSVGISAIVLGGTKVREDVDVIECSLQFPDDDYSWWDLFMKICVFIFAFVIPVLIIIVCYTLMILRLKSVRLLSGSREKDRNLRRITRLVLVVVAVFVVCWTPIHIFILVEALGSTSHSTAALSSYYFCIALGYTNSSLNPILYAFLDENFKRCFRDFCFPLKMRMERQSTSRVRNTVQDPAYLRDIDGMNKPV

Compound	Ki [1]	Ki [2]	Ki [3]	Emax [4]	EC50 [5]	Emax [5]	EC50 [6]	Emax [6]	EC50 [4]	EC50 (nm) DOR [4]	% stimulation DOR [4]	EC50 (nm) KOR [5]	% stimulation KOR [5]
CC(=O)N1CC[C@@H](NC(=O)[C@@H](N)Cc2c(C)cc(O)cc2C)c2cc(Oc3ccc(Cl)cc3)ccc21 [Compound 1026]	45.5 ± 6.67 nM	3.1 ± 0.69 nM	0.1 ± 0.03 nM	0%	1820 nM	47.3%	7.01 ± 1.49 nM	61.2 ± 6.93%	–	–	–	–	–
CC(=O)N1CC[C@@H](NC(=O)[C@@H](N)Cc2c(C)cc(O)cc2C)c2cc(Oc3cccc(Cl)c3)ccc21 [Compound 1027]	21 nM	5.03 ± 0.29 nM	0.05 ± 0.01 nM	7.42 ± 5.57%	791 nM	55.1%	8.07 ± 4.81 nM	72.2 ± 2.41%	431 ± 216 nM	–	–	–	–
Cc1cc(O)cc(C)c1C[C@H](N)C(=O)N[C@@H]1CCNc2ccc(Cc3c(Cl)cccc3Cl)cc21 [Compound 1032]	4.85 ± 0.66 nM	4.61 ± 0.06 nM	0.08 ± 0.01 nM	–	–	0%	2040 nM	33.6%	–	dns	dns	–	–
Cc1cc(C(N)=O)cc(C)c1C[C@H](N)C(=O)N[C@@H]1CCNc2ccc(Cc3ccccc3)cc21 [Compound 1048]	170 ± 49.1 nM	32.3 ± 7.57 nM	0.6 ± 0.12 nM	24.5 ± 3.25%	–	–	9.2 ± 4.58 nM	97.9 ± 4.71%	1590 ± 738 nM	–	–	dns	dns
Cc1ccc2c(c1)CN(Cc1ccc3c(c1)[C@H](NC(=O)[C@@H](N)Cc1c(C)cc(O)cc1C)CCN3)CC2 [Compound 1049]	11.9 ± 6.13 nM	23.3 ± 2.51 nM	0.17 ± 0.06 nM	–	–	–	0.35 ± 0.11 nM	111 ± 4.65%	–	dns	dns	dns	dns
Cc1cc(O)cc(C)c1C[C@H](N)C(=O)N[C@@H]1CCNc2ccc(Cc3ccc4c(c3)OCCO4)cc21 [Compound 1050]	116 ± 65.1 nM	5.48 ± 0.81 nM	0.35 ± 0.11 nM	–	–	–	5.54 ± 0.12 nM	87.5 ± 12%	–	dns	dns	dns	dns
Cc1cc(O)cc(C)c1C[C@H](N)C(=O)N[C@@H]1CCNc2ccc(CN3CCC[C@H]4CCCC[C@@H]43)cc21 [Compound 1051]	7.03 ± 1.36 nM	9.5 ± 1.22 nM	0.18 ± 0.03 nM	–	–	–	1.22 ± 0.07 nM	36.2 ± 8.14%	–	dns	dns	dns	dns
Cc1cc(O)cc(C)c1C[C@H](N)C(=O)N[C@@H]1CCNc2ccc(S(=O)(=O)c3ccccc3)cc21 [Compound 1052]	26 ± 7.12 nM	2.92 ± 0.41 nM	3.01 ± 1.87 nM	–	1310 nM	38.5%	12.9 ± 1.35 nM	68.9 ± 10.3%	–	dns	dns	–	–
Cc1cc(O)cc(C)c1C[C@H](N)C(=O)N[C@@H]1CCNc2ccc(Sc3ccccc3)cc21 [Compound 1053]	10.8 ± 6.24 nM	5.08 ± 0.52 nM	0.45 ± 0.11 nM	–	1120 nM	22.4%	4.67 ± 1.44 nM	51.6 ± 6.43%	–	dns	dns	–	–
Cc1cc(O)cc(C)c1C[C@H](N)C(=O)N[C@@H]1CCNc2ccc(CN3CCc4ccc(F)cc4C3)cc21 [Compound 1054]	9.63 ± 0.4 nM	16.7 ± 2.47 nM	0.17 ± 0.02 nM	–	108 nM	–	0.5 ± 0.05 nM	105 ± 4.56%	25.9 ± 16.9 nM	–	dns	–	dns
